Reference: patent publication US9216986B1, “Quinoline derivatives as PDE10A enzyme inhibitors” (H. Lundbeck A/S, priority 2011, dated 2015)
pIC50: −log10 of the molar value.

Biological target: PDE10A enzyme (Homo sapiens (Human), UniProt Q9Y233)
Assay: PDE10A inhibition assay
Format: biochemical
Details: tritium labeled cAMP 5 nM
Protocol: Active PDE10A enzyme is prepared in a number of ways for use in PDE assays (Loughney, K. et al. Gene 1999, 234, 109-117; Fujishige, K. et al. Eur J Biochem. 1999, 266, 1118-1127 and Soderling, S. et al. Proc. Natl. Acad. Sci. 1999, 96, 7071-7076). PDE10A can be expressed as full-length proteins or as truncated proteins, as long as they express the catalytic domain. PDE10A can be prepared in different cell types, for example insect cells or E. coli. An example of a method to obtain catalytically active PDE10A is as follows: The catalytic domain of human PDE10A (amino acids 440-779 from the sequence with accession number NP 006652) is amplified from total human brain total RNA by standard RT-PCR and is cloned into the BamH1 and Xho1 sites of the pET28a vector (Novagen). Expression in coli is performed according to standard protocols. Briefly, the expression plasmids are transformed into the BL21(DE3) E. coli strain, and 50 mL cultures inoculated with the cells allowed to grow to an OD600 of 0.4-0.6 before protein expression is induced with 0.5 mM IPTG. Following induction, the cells are incubated overnight at room temperature, after which the cells are collected by centrifugation. Cells expressing PDE10A are resuspended in 12 mL (50 mM TRIS-HCl-pH8.0, 1 mM MgCl2 and protease inhibitors). The cells are lysed by sonication, and after all cells are lysed, TritonX100 is added according to Novagen protocols.
A PDE10A assay may for example, be performed as follows: The assay is performed in 60 uL samples containing a fixed amount of the relevant PDE enzyme (sufficient to convert 20-25% of the cyclic nucleotide substrate), a buffer (50 mM HEPES7.6; 10 mM MgCl2; 0.02% Tween20), 0.1 mg/ml BSA, 225 pCi of ^3H-labelled cyclic nucleotide substrate, tritium labeled cAMP to a final concentration of 5 nM and varying amounts of inhibitors. Reactions are initiated by addition of the cyclic nucleotide substrate, and reactions are allowed to proceed for one hr at room temperature before being terminated through mixing with 15 uL 8 mg/mL yttrium silicate SPA beads (Amersham). The beads are allowed to settle for one hr in the dark before the plates are counted in a Wallac 1450 Microbeta counter. The measured signal can be converted to activity relative to an uninhibited control (100%) and IC50 values can be calculated using the XIfit extension to EXCEL.

PDE10A enzyme, sequence (Q9Y233 716-1055): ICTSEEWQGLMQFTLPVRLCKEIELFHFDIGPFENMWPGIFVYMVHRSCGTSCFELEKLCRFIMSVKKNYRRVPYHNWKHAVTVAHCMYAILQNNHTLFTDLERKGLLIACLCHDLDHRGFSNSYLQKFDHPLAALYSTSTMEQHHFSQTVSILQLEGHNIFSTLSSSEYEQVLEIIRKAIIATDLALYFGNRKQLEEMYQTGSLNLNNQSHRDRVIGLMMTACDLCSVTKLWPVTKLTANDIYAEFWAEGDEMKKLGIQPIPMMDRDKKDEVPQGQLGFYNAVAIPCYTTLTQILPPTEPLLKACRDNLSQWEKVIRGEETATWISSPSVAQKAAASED

Compound	pIC50
Cc1cc(C)n2cc(/C=C\c3ccc4ccccc4n3)nc2n1 [2-[(Z)-2-(5,7-Dimethyl-imidazo[1,2-a]pyrimidin-2-yl)-vinyl]-quinoline]	6.62
COc1ccc(C)n2nc(/C=C/c3cc(Cl)c4cccc(F)c4n3)nc12 [4-Chloro-8-fluoro-2-[(E)-2-(8-methoxy-5-methyl-[1,2,4]triazolo[1,5-a]pyridin-2-yl)-vinyl]-quinoline]	6.57
COc1cc(CCc2nc3cccc(C)n3n2)nc2ccccc12 [4-Methoxy-2-[2-(5-methyl-[1,2,4]triazolo[1,5-a]pyridin-2-yl)-ethyl]-quinoline]	6.72
COc1cc(CCc2nc3c(OC)ccc(C)n3n2)nc2ccccc12 [4-Methoxy-2-[2-(8-methoxy-5-methyl-[1,2,4]triazolo[1,5-a]pyridin-2-yl)-ethyl]-quinoline]	7.46
Cc1cc(CCc2nc3cccc(C)n3n2)nc2ccccc12 [4-Methyl-2-[2-(5-methyl-[1,2,4]triazolo[1,5-a]pyridin-2-yl)-ethyl]-quinoline]	6.85
Cc1ncc(C)n2nc(CCc3ccc4c(Cl)cc(Cl)cc4n3)nc12 [5,7-Dichloro-2-[2-(5,8-dimethyl-[1,2,4]triazolo[1,5-a]pyrazin-2-yl)-ethyl]-quinoline]	7.41
Cc1ncc(C)n2nc(CCc3ccc4cc(Cl)cc(F)c4n3)nc12 [6-Chloro-2-[2-(5,8-dimethyl-[1,2,4]triazolo[1,5-a]pyrazin-2-yl)-ethyl]-8-fluoro-quinoline]	6.62
Cc1ncc(C)n2nc(CCc3ccc4cc(Cl)ccc4n3)nc12 [6-Chloro-2-[2-(5,8-dimethyl-[1,2,4]triazolo[1,5-a]pyrazin-2-yl)-ethyl]-quinoline]	7.38
COc1ccc(C)n2nc(CCc3ccc4cc(F)ccc4n3)nc12 [6-Fluoro-2-[2-(8-methoxy-5-methyl-[1,2,4]triazolo[1,5-a]pyridin-2-yl)-ethyl]-quinoline]	7.47
Cc1ncc(C)n2nc(CCc3ccc4cc5c(cc4n3)OC(F)(F)O5)nc12 [6-[2-(5,8-Dimethyl-[1,2,4]triazolo[1,5-a]pyrazin-2-yl)-ethyl]-2,2-difluoro-[1,3]dioxolo[4,5-g]quinoline]	6.28
Cc1ncc(C)n2nc(CCc3ccc4cc5c(cc4n3)OCO5)nc12 [6-[2-(5,8-Dimethyl-[1,2,4]triazolo[1,5-a]pyrazin-2-yl)-ethyl]-[1,3]dioxolo[4,5-g]quinoline]	7.89
Cc1ncc(C)n2nc(CCc3ccc4cc(C#N)c(Cl)cc4n3)nc12 [7-Chloro-2-[2-(5,8-dimethyl-[1,2,4]triazolo[1,5-a]pyrazin-2-yl)-ethyl]-quinoline-6-carbonitrile]	7.23
Cc1ncc(C)n2nc(CCc3ccc4ccc(Cl)cc4n3)nc12 [7-Chloro-2-[2-(5,8-dimethyl-[1,2,4]triazolo[1,5-a]pyrazin-2-yl)-ethyl]-quinoline]	7.28
Cc1ncc(C)n2nc(CCc3ccc4cc5c(cc4n3)OCCO5)nc12 [7-[2-(5,8-Dimethyl-[1,2,4]triazolo[1,5-a]pyrazin-2-yl)-ethyl]-2,3-dihydro-[1,4]dioxino[2,3-g]quinoline]	8.40
Cc1cc(Cl)c2nc(CCc3nc4c(C)ncc(C)n4n3)ccc2c1 [8-Chloro-2-[2-(5,8-dimethyl-[1,2,4]triazolo[1,5-a]pyrazin-2-yl)-ethyl]-6-methyl-quinoline]	6.54
COc1ccc(C)n2nc(CCc3ccc4cccc(F)c4n3)nc12 [8-Fluoro-2-[2-(8-methoxy-5-methyl-[1,2,4]triazolo[1,5-a]pyridin-2-yl)-ethyl]-quinoline]	6.82

System: rats
Assay: not given
Details: cited from earlier work

Compound	reduction of amphetamine induced hyperactivity
COc1ccc(Cc2nccc3cc(OC)c(OC)cc23)cc1OC [Papaverine, papaverine]	insignificant

System: rats
Assay: not given
Details: cited from earlier work
Remark: another data set of the same source

Compound	hyperactivity induced by PCP
COc1ccc(Cc2nccc3cc(OC)c(OC)cc23)cc1OC [Papaverine, papaverine]	reduced hyperactivity

System: rats
Assay: not given
Details: papaverine alone; cited from earlier work

Compound	catalepsy on its own
COc1ccc(Cc2nccc3cc(OC)c(OC)cc23)cc1OC [Papaverine, papaverine]	did not cause catalepsy on its own

Same assay, conditions: together with haloperidol; cited from earlier work

Compound	cataleptic effect of the D2 receptor antagonist haloperidol
COc1ccc(Cc2nccc3cc(OC)c(OC)cc23)cc1OC [Papaverine, papaverine]	potentiated the cataleptic effect
